From PubChem BioAssay (NCI)
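Where inhibition never reached the appropriate level, the endpoint shown equals the highest concentration tested. Otherwise, values were interpolated linearly from a five-concentration, 48-hour dose response in 96-well plates. Definition used: TGI = concentration required for complete inhibition of growth.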

How the values were obtained:
Experiment in all cases: DTP human tumour cell line panel, 48 h
786-0 renal = tested on: 786-0 renal
A498 renal = tested on: A498 renal
A549 NSCLC = tested on: A549 NSCLC
ACHN renal = tested on: ACHN renal
BT-549 breast = tested on: BT-549 breast
CAKI-1 renal = tested on: CAKI-1 renal
CCRF-CEM leukemia = tested on: CCRF-CEM leukemia
COLO 205 colon = tested on: COLO 205 colon
DU-145 prostate = tested on: DU-145 prostate
EKVX NSCLC = tested on: EKVX NSCLC
HCC-2998 colon = tested on: HCC-2998 colon
HCT-116 colon = tested on: HCT-116 colon
HCT-15 colon = tested on: HCT-15 colon
HL-60(TB) leukemia = tested on: HL-60(TB) leukemia
HOP-62 NSCLC = tested on: HOP-62 NSCLC
HOP-92 NSCLC = tested on: HOP-92 NSCLC
HS 578T breast = tested on: HS 578T breast
HT29 colon = tested on: HT29 colon
IGROV1 ovarian = tested on: IGROV1 ovarian
K-562 leukemia = tested on: K-562 leukemia
KM12 colon = tested on: KM12 colon
LOX IMVI melanoma = tested on: LOX IMVI melanoma
M14 melanoma = tested on: M14 melanoma
MALME-3M melanoma = tested on: MALME-3M melanoma
MCF7 breast = tested on: MCF7 breast
MDA-MB-231 breast = tested on: MDA-MB-231 breast
MDA-MB-435 = tested on: MDA-MB-435
MDA-N = tested on: MDA-N
MOLT-4 leukemia = tested on: MOLT-4 leukemia
NCI-H226 lung = tested on: NCI-H226 lung
NCI-H23 lung = tested on: NCI-H23 lung
NCI-H460 lung = tested on: NCI-H460 lung
NCI-H522 lung = tested on: NCI-H522 lung
NCI/ADR-RES ovarian = tested on: NCI/ADR-RES ovarian
OVCAR-3 ovarian = tested on: OVCAR-3 ovarian
OVCAR-4 ovarian = tested on: OVCAR-4 ovarian
OVCAR-5 ovarian = tested on: OVCAR-5 ovarian
OVCAR-8 ovarian = tested on: OVCAR-8 ovarian
PC-3 prostate = tested on: PC-3 prostate
RPMI-8226 leukemia = tested on: RPMI-8226 leukemia
RXF 393 renal = tested on: RXF 393 renal
SF-268 CNS = tested on: SF-268 CNS
SF-295 CNS = tested on: SF-295 CNS
SF-539 CNS = tested on: SF-539 CNS
SK-MEL-2 melanoma = tested on: SK-MEL-2 melanoma
SK-MEL-28 melanoma = tested on: SK-MEL-28 melanoma
SK-MEL-5 melanoma = tested on: SK-MEL-5 melanoma
SK-OV-3 ovarian = tested on: SK-OV-3 ovarian
SN12C renal = tested on: SN12C renal
SNB-19 CNS = tested on: SNB-19 CNS
SNB-75 CNS = tested on: SNB-75 CNS
SR leukemia = tested on: SR leukemia
SW-620 colon = tested on: SW-620 colon
T-47D breast = tested on: T-47D breast
TK-10 renal = tested on: TK-10 renal
U251 CNS = tested on: U251 CNS
UACC-257 melanoma = tested on: UACC-257 melanoma
UACC-62 melanoma = tested on: UACC-62 melanoma
UO-31 renal = tested on: UO-31 renal
DLD-1 colon = tested on: DLD-1 colon
DMS 114 small cell lung = tested on: DMS 114 small cell lung
DMS 273 small cell lung = tested on: DMS 273 small cell lung
KM20L2 colon = tested on: KM20L2 colon
LXFL 529 NSCLC = tested on: LXFL 529 NSCLC
M19-MEL melanoma = tested on: M19-MEL melanoma
SNB-78 CNS = tested on: SNB-78 CNS

## Cc1c(Cl)cc(C(C)(C)C)c(O)c1Cc1c(C)c(Cl)cc(C(C)(C)C)c1O
786-0 renal
  TGI: 4.57 µM
A498 renal
  TGI: 3.84 µM
A549 NSCLC
  TGI: 5.88 µM
ACHN renal
  TGI: 7.64 µM
BT-549 breast
  TGI: 9.79 µM
CAKI-1 renal
  TGI: 7.51 µM
CCRF-CEM leukemia
  TGI: 1.54 µM
COLO 205 colon
  TGI: 2.48 µM
DU-145 prostate
  TGI: 11.8 µM
EKVX NSCLC
  TGI: 6.41 µM
HCC-2998 colon
  TGI: 3.33 µM
HCT-116 colon
  TGI: 3.47 µM
HCT-15 colon
  TGI: 13.6 µM
HL-60(TB) leukemia
  TGI: 3.45 µM
HOP-62 NSCLC
  TGI: 9.87 µM
HOP-92 NSCLC
  TGI: 1.18 µM
HS 578T breast
  TGI: 3.61 µM
HT29 colon
  TGI: 6.36 µM
IGROV1 ovarian
  TGI: 5.53 µM
K-562 leukemia
  TGI: 5.1 µM
KM12 colon
  TGI: 5.76 µM
LOX IMVI melanoma
  TGI: 3.19 µM
M14 melanoma
  TGI: 7.85 µM
MALME-3M melanoma
  TGI: 1.94 µM
MCF7 breast
  TGI: 7.28 µM
MDA-MB-231 breast
  TGI: 3.49 µM
MDA-MB-435
  TGI: 5.62 µM
MDA-N
  TGI: 8.71 µM
MOLT-4 leukemia
  TGI: 3.34 µM
NCI-H226 lung
  TGI: 6.03 µM
NCI-H23 lung
  TGI: 5.13 µM
NCI-H460 lung
  TGI: 5.03 µM
NCI-H522 lung
  TGI: 1.18 µM
NCI/ADR-RES ovarian
  TGI: 9.24 µM
OVCAR-3 ovarian
  TGI: 2.22 µM
OVCAR-4 ovarian
  TGI: 10.3 µM
OVCAR-5 ovarian
  TGI: 14 µM
OVCAR-8 ovarian
  TGI: 5.51 µM
PC-3 prostate
  TGI: 9.93 µM
RPMI-8226 leukemia
  TGI: 0.707 µM
RXF 393 renal
  TGI: 2.44 µM
SF-268 CNS
  TGI: 6.89 µM
SF-295 CNS
  TGI: 7.54 µM
SF-539 CNS
  TGI: 4.24 µM
SK-MEL-2 melanoma
  TGI: 3.9 µM
SK-MEL-28 melanoma
  TGI: 12.3 µM
SK-MEL-5 melanoma
  TGI: 2.29 µM
SK-OV-3 ovarian
  TGI: 10 µM
SN12C renal
  TGI: 9.02 µM
SNB-19 CNS
  TGI: 12.5 µM
SNB-75 CNS
  TGI: 5.78 µM
SR leukemia
  TGI: 5.58 µM
SW-620 colon
  TGI: 6.45 µM
T-47D breast
  TGI: 13.1 µM
TK-10 renal
  TGI: 10 µM
U251 CNS
  TGI: 7.97 µM
UACC-257 melanoma
  TGI: 6.29 µM
UACC-62 melanoma
  TGI: 7 µM
UO-31 renal
  TGI: 4.46 µM

## CCNC(=O)O/N=C1/C=C2CC[C@@H]3C(CC[C@@]4(C)C3CC[C@@H]4OC(=O)NCC)[C@@]2(C)CC1 (stereo partly drawn)
786-0 renal
  TGI: 10.7 µM
A498 renal
  TGI: > 100 µM
A549 NSCLC
  TGI: 14.2 µM
ACHN renal
  TGI: 11.6 µM
CAKI-1 renal
  TGI: 16.9 µM
COLO 205 colon
  TGI: 7.87 µM
DLD-1 colon
  TGI: > 100 µM
DMS 114 small cell lung
  TGI: 3.29 µM
DMS 273 small cell lung
  TGI: 5.5 µM
EKVX NSCLC
  TGI: 16.2 µM
HCC-2998 colon
  TGI: 15.2 µM
HCT-116 colon
  TGI: 12.2 µM
HCT-15 colon
  TGI: 11.2 µM
HOP-62 NSCLC
  TGI: > 100 µM
HOP-92 NSCLC
  TGI: 16.7 µM
HT29 colon
  TGI: 10.3 µM
IGROV1 ovarian
  TGI: > 100 µM
K-562 leukemia
  TGI: 12.7 µM
KM12 colon
  TGI: 9.58 µM
KM20L2 colon
  TGI: 5.15 µM
LOX IMVI melanoma
  TGI: 11.9 µM
LXFL 529 NSCLC
  TGI: 3.4 µM
M14 melanoma
  TGI: 8.22 µM
M19-MEL melanoma
  TGI: 10.3 µM
MOLT-4 leukemia
  TGI: 5.44 µM
NCI-H23 lung
  TGI: 10.8 µM
NCI-H460 lung
  TGI: 12.5 µM
NCI-H522 lung
  TGI: 4.77 µM
OVCAR-4 ovarian
  TGI: 6.39 µM
OVCAR-5 ovarian
  TGI: 20 µM
OVCAR-8 ovarian
  TGI: 16.3 µM
RPMI-8226 leukemia
  TGI: 7.02 µM
RXF 393 renal
  TGI: 5.3 µM
SF-295 CNS
  TGI: 7.03 µM
SF-539 CNS
  TGI: > 100 µM
SK-MEL-2 melanoma
  TGI: 5.1 µM
SK-MEL-28 melanoma
  TGI: 14.6 µM
SK-MEL-5 melanoma
  TGI: > 100 µM
SK-OV-3 ovarian
  TGI: 7.8 µM
SN12C renal
  TGI: 14.6 µM
SNB-19 CNS
  TGI: 8.21 µM
SNB-75 CNS
  TGI: 5.94 µM
SNB-78 CNS
  TGI: 9.3 µM
SW-620 colon
  TGI: 11.4 µM
TK-10 renal
  TGI: 8.8 µM
U251 CNS
  TGI: 5.28 µM
UACC-257 melanoma
  TGI: 11.1 µM
UACC-62 melanoma
  TGI: 7.92 µM
UO-31 renal
  TGI: 3.46 µM
